According to US20210338767A1, “METHODS OF SELECTING TREATMENT FOR CXCR4-ASSOCIATED CANCER” (BioLineRx Ltd., priority 2018, published 2021):
Positions of bridges follow the written chain, without caps; N, C: chain ends. Non-standard residues stand in square brackets, D forms with d. *: point of attachment. Benzoyl(4-F) = O=C(c1ccc(F)cc1)*; Cit = NC(=O)NCCC[C@H](N)C(=O)O

Key:
[1] = system: relapsed or refractory AML; experiment: Phase 2a study of BL-8040 combined with high dose Ara-C (HiDAC) in relapsed/refractory AML: efficacy; type: in vivo, human
Source text: Subjects were accrued in a conventional 3+3 design.
Follow-up period started after completion of Ara-C chemotherapy and continued for up to 6 weeks after initiation of salvage chemotherapy with Ara-C, i.e., up to Day 44. Subjects participating in the expansion phase were followed for up to 5 years after completion of the follow-up period. Subjects were contacted by telephone at approximately 3-month intervals (±1 month) after the end of the follow-up period to determine AML status and survival.

[2] = molecular target: T1, CXCR4 receptor (Homo sapiens, UniProt P61073); experiment: Pharmacodynamic assessment: CXCR4 receptor occupancy prior and post BL-8040 treatment; type: in vivo
T1 construct: Fold change in level of occupied CXCR4 receptor prior and post treatment with low (0.5, 0.75 and 1 mg/kg) and high; endogenous in cells
Procedure: (§1) FIGS. 3A-D show BL-8040 Mediated CXCR4 Receptor Occupancy and Induce Mobilization and Differentiation of AML Blasts. (A) Fold change in level of occupied CXCR4 receptor prior and post treatment with low (0.5, 0.75 and 1 mg/kg) and high (1.25, 1.5 and 2 mg/kg) BL-8040 dose levels. (B) Fold change in AML blast counts pre and post BL-8040 and BL-8040+HiDAC treatments in responders and non-responders. (C) Fold change in the level of AML blasts in the BM following BL-8040 treatment (D) Change in levels of BM Granulocytes following 2 days of BL-8040 treatment.
Receptor occupancy is typically assessed using two monoclonal antibodies (mAbs) binding to two different epitopes of the CXCR4 antigen. […] It will be appreciated that receptor occupancy can also be determined by using an antibody which binds peptide-free CXCR4 prior to and post contacting with the peptide (e.g., 12G5, supra).
According to a specific embodiment, the receptor occupancy is determined as follows: Percent or number of CXCR4 expressing cells (e.g., using 12G5 Ab) post drug (e.g., SEQ ID NO: 1) treatment out of percent or number of CXCR4 expressing cells (e.g., using 12G5 Ab) prior to drug (e.g., SEQ ID NO: 1) treatment *100, such a calculation provides receptor occupancy per cell.

[3] = system: malignant cells of hematopoietic origin including AML; conditions: cited from earlier work
[4] = system: AML blasts; experiment: Pharmacodynamic assessment: mobilization and differentiation of AML blasts (peripheral blood, bone marrow); type: in vivo, human
Procedure: as §1

[5] = all patients at all BL-8040 dose levels (N=42)
[6] = responding subjects at the 1.5 mg/kg dose (9/23 with CR/CRi)
[7] = responding subjects within the 1.5 mg/kg dose group
[8] = subjects receiving 1.5 mg/kg (N=23)
[9] = responding patients following BL-8040 treatment vs baseline, compared to non-responders

T1 sequence (P61073 whole entry): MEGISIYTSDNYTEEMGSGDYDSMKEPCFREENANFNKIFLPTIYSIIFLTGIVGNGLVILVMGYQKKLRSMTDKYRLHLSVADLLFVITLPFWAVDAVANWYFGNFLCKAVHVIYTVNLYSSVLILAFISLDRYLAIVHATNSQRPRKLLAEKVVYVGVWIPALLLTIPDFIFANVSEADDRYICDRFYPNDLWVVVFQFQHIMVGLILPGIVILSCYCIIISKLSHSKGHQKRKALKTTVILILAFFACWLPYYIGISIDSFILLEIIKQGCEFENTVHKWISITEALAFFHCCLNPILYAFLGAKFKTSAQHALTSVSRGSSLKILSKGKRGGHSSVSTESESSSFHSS

Substance: 4F-benzoyl-Arg-Arg-Nal-Cys-Tyr-Cit-Lys-DLys-Pro-Tyr-Arg-Cit-Cys-Arg-NH2 ({Benzoyl(4-F)}-RR[Nal]CY[Cit]K[dK]PYR[Cit]CR-NH2; disulfide 4-13 (inferred)) [BL-8040]
- 1-year survival rate [1, 5]: 37.2%
- 2-years survival rate [1, 5]: 20%
- 3-years survival rate [1, 5]: 16%
- median overall survival (mOS) ([1]; all patients at all BL-8040 dose levels (N=42), with HiDAC): 9.1 months
- composite CR rate (CR and CRi) ([1]; expansion group that received 1.5 mg/kg BL-8040 (9/23), with HiDAC): 39%
- composite CR rate (CR and CRi) ([1]; refractory patients (9/19), with HiDAC): 47%
- composite CR rate (CR and CRi) ([1]; relapsed patients (3/23), with HiDAC): 13%
- 1-year survival rate [1, 6]: 66.7%
- 2-years survival rate [1, 6]: 44.4%
- 3-years survival rate [1, 6]: 44.4%
- median overall survival (mOS) [1, 6]: 21.8 months
- EFS at 1 year [1, 7]: 55.6%
- EFS at 2 years [1, 7]: 22.2%
- EFS at 3 years [1, 7]: 22.2%
- median duration of response (mDOR) [1, 7]: 17.4 months
- 1-year survival rate [1, 8]: 38.1%
- 2-year survival rate [1, 8]: 23.8%
- 3-year survival rate [1, 8]: 23.8%
- median overall survival (mOS) [1, 8]: 10.7 months
- CXCR4 receptor occupancy ([2]; high BL-8040 dose levels (1.25, 1.5 and 2 mg/kg)): demonstrated CXCR4 receptor occupancy
- CXCR4 receptor occupancy ([2]; low BL-8040 dose levels (0.5, 0.75 and 1 mg/kg)): insignificant changes in receptor occupancy
- cytotoxicity toward malignant cells [3]: CXCR4-dependent preferential cytotoxicity
- levels of granulocytes in BM ([4]; responders vs non-responders relative to screening, following BL-8040 treatment): Statistically significant increased levels of granulocytes
- leukemic blasts in BM [4, 9]: decreased numbers of leukemic blasts in BM
- mobilized leukemic blasts in peripheral blood [4, 9]: statistically significant increased numbers of mobilized leukemic blasts
